How the values were obtained:
[1] = Sensory evaluation of aqueous solution V containing 1-octen-3-ol 10 ppb: off-flavor intensity and masking component intensity; conditions: average panel score
Summary of the method: (§1)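 8 trained panelists; degradant in ion-exchanged water + nootkatone. Off-flavor 0–4, relative (no masker = 4, water = 0); masker flavor 0–4, absolute.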

[2] = Sensory evaluation of aqueous solution IV containing 1,5-octadien-3-one 100 ppt: off-flavor intensity and masking component intensity; conditions: aqueous solution IV, average panel score
Summary of the method: as §1

[3] = Sensory evaluation of aqueous solution I containing (E)-2-nonenal 1 ppb: off-flavor intensity and masking component intensity; conditions: average panel score
Summary of the method: as §1

[4] = Sensory evaluation of aqueous solution II containing (E)-2-octenal 10 ppb: off-flavor intensity and masking component intensity; conditions: average panel score
Summary of the method: as §1

[5] = Overall conclusion of the sensory evaluation across aqueous solutions I to VI
Summary of the method: as §1

[6] = Sensory evaluation of aqueous solution III containing 1-octen-3-one 1 ppb: off-flavor intensity and masking component intensity; conditions: average panel score
Summary of the method: as §1

[7] = Sensory evaluation of aqueous solution VI containing 1,5-octadien-3-ol 10 ppb: off-flavor intensity and masking component intensity; conditions: aqueous solution VI, average panel score
Summary of the method: as §1

C=CC(C)(O)CCC=C(C)CCC=C(C)C (stereo not shown) [nerolidol]
Masking Component Intensity ([1]; 1 ppb added): 0.6
Off-Flavor Intensity ([1]; 1 ppb added): 2.6
Masking Component Intensity ([1]; 1 ppm added): 2.6
Off-Flavor Intensity ([1]; 1 ppm added): 1.6
Masking Component Intensity ([1]; 5 ppm added): 3.5
Off-Flavor Intensity ([1]; 5 ppm added): 1.0
Masking Component Intensity ([1]; 10 ppb added): 0.9
Off-Flavor Intensity ([1]; 10 ppb added): 2.5
Masking Component Intensity ([1]; 10 ppm added): 3.9
Off-Flavor Intensity ([1]; 10 ppm added): 0.6
Masking Component Intensity ([1]; 10 ppt added): 0.1
Off-Flavor Intensity ([1]; 10 ppt added): 3.6
Masking Component Intensity ([1]; 100 ppb added): 1.4
Off-Flavor Intensity ([1]; 100 ppb added): 2.1
Masking Component Intensity ([1]; 100 ppt added): 0.3
Off-Flavor Intensity ([1]; 100 ppt added): 3.1
Masking Component Intensity ([2]; 1 ppb added): 0.4
Off-Flavor Intensity ([2]; 1 ppb added): 3.1
Masking Component Intensity ([2]; 1 ppm added): 2.0
Off-Flavor Intensity ([2]; 1 ppm added): 2.3
Masking Component Intensity ([2]; 5 ppm added): 3.0
Off-Flavor Intensity ([2]; 5 ppm added): 1.9
Masking Component Intensity ([2]; 10 ppb added): 0.6
Off-Flavor Intensity ([2]; 10 ppb added): 3.0
Masking Component Intensity ([2]; 10 ppm added): 3.6
Off-Flavor Intensity ([2]; 10 ppm added): 1.4
Masking Component Intensity ([2]; 10 ppt added): 0.1
Off-Flavor Intensity ([2]; 10 ppt added): 3.6
Masking Component Intensity ([2]; 100 ppb added): 1.3
Off-Flavor Intensity ([2]; 100 ppb added): 2.6
Masking Component Intensity ([2]; 100 ppt added): 0.1
Off-Flavor Intensity ([2]; 100 ppt added): 3.4
Masking Component Intensity ([3]; 1 ppb added): 0.4
Off-Flavor Intensity ([3]; 1 ppb added): 2.8
Masking Component Intensity ([3]; 1 ppm added): 2.0
Off-Flavor Intensity ([3]; 1 ppm added): 1.6
Masking Component Intensity ([3]; 5 ppm added): 2.9
Off-Flavor Intensity ([3]; 5 ppm added): 1.0
Masking Component Intensity ([3]; 10 ppb added): 0.6
Off-Flavor Intensity ([3]; 10 ppb added): 2.4
Masking Component Intensity ([3]; 10 ppm added): 3.8
Off-Flavor Intensity ([3]; 10 ppm added): 0.8
Masking Component Intensity ([3]; 10 ppt added): 0.1
Off-Flavor Intensity ([3]; 10 ppt added): 3.6
Masking Component Intensity ([3]; 100 ppb added): 1.1
Off-Flavor Intensity ([3]; 100 ppb added): 2.0
Masking Component Intensity ([3]; 100 ppt added): 0.3
Off-Flavor Intensity ([3]; 100 ppt added): 3.3
Masking Component Intensity ([4]; 1 ppb added): 0.4
Off-Flavor Intensity ([4]; 1 ppb added): 2.6
Masking Component Intensity ([4]; 1 ppm added): 2.4
Off-Flavor Intensity ([4]; 1 ppm added): 1.5
Masking Component Intensity ([4]; 5 ppm added): 3.4
Off-Flavor Intensity ([4]; 5 ppm added): 0.8
Masking Component Intensity ([4]; 10 ppb added): 0.8
Off-Flavor Intensity ([4]; 10 ppb added): 2.3
Masking Component Intensity ([4]; 10 ppm added): 3.8
Off-Flavor Intensity ([4]; 10 ppm added): 0.5
Masking Component Intensity ([4]; 10 ppt added): 0.0
Off-Flavor Intensity ([4]; 10 ppt added): 3.4
Masking Component Intensity ([4]; 100 ppb added): 1.5
Off-Flavor Intensity ([4]; 100 ppb added): 1.9
Masking Component Intensity ([4]; 100 ppt added): 0.1
Off-Flavor Intensity ([4]; 100 ppt added): 3.0
concentration that masks the off-flavor and does not affect the flavor of the food and/or beverage itself, lower limit [5]: ≥ 100 ppt
concentration that masks the off-flavor and does not affect the flavor of the food and/or beverage itself, upper limit [5]: ≤ 5 ppm
Masking Component Intensity ([6]; 1 ppb added): 0.4
Off-Flavor Intensity ([6]; 1 ppb added): 3.0
Masking Component Intensity ([6]; 1 ppm added): 2.1
Off-Flavor Intensity ([6]; 1 ppm added): 1.5
Masking Component Intensity ([6]; 5 ppm added): 3.4
Off-Flavor Intensity ([6]; 5 ppm added): 0.9
Masking Component Intensity ([6]; 10 ppb added): 0.8
Off-Flavor Intensity ([6]; 10 ppb added): 2.5
Masking Component Intensity ([6]; 10 ppm added): 3.6
Off-Flavor Intensity ([6]; 10 ppm added): 0.4
Masking Component Intensity ([6]; 10 ppt added): 0.1
Off-Flavor Intensity ([6]; 10 ppt added): 3.6
Masking Component Intensity ([6]; 100 ppb added): 1.5
Off-Flavor Intensity ([6]; 100 ppb added): 2.0
Masking Component Intensity ([6]; 100 ppt added): 0.3
Off-Flavor Intensity ([6]; 100 ppt added): 3.4
Masking Component Intensity ([7]; 1 ppb added): 0.3
Off-Flavor Intensity ([7]; 1 ppb added): 3.1
Masking Component Intensity ([7]; 1 ppm added): 2.5
Off-Flavor Intensity ([7]; 1 ppm added): 1.8
Masking Component Intensity ([7]; 5 ppm added): 3.5
Off-Flavor Intensity ([7]; 5 ppm added): 1.1
Masking Component Intensity ([7]; 10 ppb added): 0.8
Off-Flavor Intensity ([7]; 10 ppb added): 2.4
Masking Component Intensity ([7]; 10 ppm added): 3.9
Off-Flavor Intensity ([7]; 10 ppm added): 0.8
Masking Component Intensity ([7]; 10 ppt added): 0.0
Off-Flavor Intensity ([7]; 10 ppt added): 3.5
Masking Component Intensity ([7]; 100 ppb added): 1.3
Off-Flavor Intensity ([7]; 100 ppb added): 2.1
Masking Component Intensity ([7]; 100 ppt added): 0.1
Off-Flavor Intensity ([7]; 100 ppt added): 3.3

CC1CCC(C(C)C)C(OCC(O)CO)C1 (stereo not shown) [3-menthoxypropan-1,2-diol]
Masking Component Intensity ([1]; 1 ppb added): 0.3
Off-Flavor Intensity ([1]; 1 ppb added): 3.1
Masking Component Intensity ([1]; 1 ppm added): 1.4
Off-Flavor Intensity ([1]; 1 ppm added): 2.6
Masking Component Intensity ([1]; 10 ppb added): 0.6
Off-Flavor Intensity ([1]; 10 ppb added): 2.6
Masking Component Intensity ([1]; 10 ppm added): 2.1
Off-Flavor Intensity ([1]; 10 ppm added): 2.0
Masking Component Intensity ([1]; 50 ppm added): 2.0
Off-Flavor Intensity ([1]; 50 ppm added): 1.6
Masking Component Intensity ([1]; 100 ppb added): 1.0
Off-Flavor Intensity ([1]; 100 ppb added): 2.5
Masking Component Intensity ([1]; 100 ppm added): 3.8
Off-Flavor Intensity ([1]; 100 ppm added): 1.4
Masking Component Intensity ([1]; 100 ppt added): 0.3
Off-Flavor Intensity ([1]; 100 ppt added): 3.3
Masking Component Intensity ([2]; 1 ppb added): 0.0
Off-Flavor Intensity ([2]; 1 ppb added): 3.8
Masking Component Intensity ([2]; 1 ppm added): 1.0
Off-Flavor Intensity ([2]; 1 ppm added): 3.3
Masking Component Intensity ([2]; 10 ppb added): 0.1
Off-Flavor Intensity ([2]; 10 ppb added): 3.5
Masking Component Intensity ([2]; 10 ppm added): 1.5
Off-Flavor Intensity ([2]; 10 ppm added): 2.9
Masking Component Intensity ([2]; 50 ppm added): 2.4
Off-Flavor Intensity ([2]; 50 ppm added): 2.5
Masking Component Intensity ([2]; 100 ppb added): 0.9
Off-Flavor Intensity ([2]; 100 ppb added): 3.5
Masking Component Intensity ([2]; 100 ppm added): 3.0
Off-Flavor Intensity ([2]; 100 ppm added): 2.1
Masking Component Intensity ([2]; 100 ppt added): 0.0
Off-Flavor Intensity ([2]; 100 ppt added): 3.9
Masking Component Intensity ([3]; 1 ppb added): 0.3
Off-Flavor Intensity ([3]; 1 ppb added): 3.4
Masking Component Intensity ([3]; 1 ppm added): 1.1
Off-Flavor Intensity ([3]; 1 ppm added): 2.9
Masking Component Intensity ([3]; 10 ppb added): 0.6
Off-Flavor Intensity ([3]; 10 ppb added): 3.1
Masking Component Intensity ([3]; 10 ppm added): 1.9
Off-Flavor Intensity ([3]; 10 ppm added): 2.6
Masking Component Intensity ([3]; 50 ppm added): 2.5
Off-Flavor Intensity ([3]; 50 ppm added): 1.9
Masking Component Intensity ([3]; 100 ppb added): 0.8
Off-Flavor Intensity ([3]; 100 ppb added): 3.1
Masking Component Intensity ([3]; 100 ppm added): 3.3
Off-Flavor Intensity ([3]; 100 ppm added): 1.8
Masking Component Intensity ([3]; 100 ppt added): 0.3
Off-Flavor Intensity ([3]; 100 ppt added): 3.4
Masking Component Intensity ([4]; 1 ppb added): 0.4
Off-Flavor Intensity ([4]; 1 ppb added): 3.0
Masking Component Intensity ([4]; 1 ppm added): 1.4
Off-Flavor Intensity ([4]; 1 ppm added): 2.3
Masking Component Intensity ([4]; 10 ppb added): 0.5
Off-Flavor Intensity ([4]; 10 ppb added): 3.0
Masking Component Intensity ([4]; 10 ppm added): 2.0
Off-Flavor Intensity ([4]; 10 ppm added): 1.8
Masking Component Intensity ([4]; 50 ppm added): 3.1
Off-Flavor Intensity ([4]; 50 ppm added): 1.5
Masking Component Intensity ([4]; 100 ppb added): 1.0
Off-Flavor Intensity ([4]; 100 ppb added): 2.8
Masking Component Intensity ([4]; 100 ppm added): 4.0
Off-Flavor Intensity ([4]; 100 ppm added): 1.1
Masking Component Intensity ([4]; 100 ppt added): 0.4
Off-Flavor Intensity ([4]; 100 ppt added): 3.1
concentration that masks the off-flavor and does not affect the flavor of the food and/or beverage itself, lower limit [5]: ≥ 100 ppt
concentration that masks the off-flavor and does not affect the flavor of the food and/or beverage itself, upper limit [5]: ≤ 100 ppm
Masking Component Intensity ([6]; 1 ppb added): 0.5
Off-Flavor Intensity ([6]; 1 ppb added): 3.3
Masking Component Intensity ([6]; 1 ppm added): 1.5
Off-Flavor Intensity ([6]; 1 ppm added): 2.5
Masking Component Intensity ([6]; 10 ppb added): 0.6
Off-Flavor Intensity ([6]; 10 ppb added): 2.9
Masking Component Intensity ([6]; 10 ppm added): 2.1
Off-Flavor Intensity ([6]; 10 ppm added): 2.3
Masking Component Intensity ([6]; 50 ppm added): 3.0
Off-Flavor Intensity ([6]; 50 ppm added): 1.9
Masking Component Intensity ([6]; 100 ppb added): 1.1
Off-Flavor Intensity ([6]; 100 ppb added): 2.8
Masking Component Intensity ([6]; 100 ppm added): 3.8
Off-Flavor Intensity ([6]; 100 ppm added): 1.6
Masking Component Intensity ([6]; 100 ppt added): 0.1
Off-Flavor Intensity ([6]; 100 ppt added): 3.3
Masking Component Intensity ([7]; 1 ppb added): 0.1
Off-Flavor Intensity ([7]; 1 ppb added): 3.0
Masking Component Intensity ([7]; 1 ppm added): 0.8
Off-Flavor Intensity ([7]; 1 ppm added): 2.6
Masking Component Intensity ([7]; 10 ppb added): 0.4
Off-Flavor Intensity ([7]; 10 ppb added): 3.0
Masking Component Intensity ([7]; 10 ppm added): 2.0
Off-Flavor Intensity ([7]; 10 ppm added): 2.3
Masking Component Intensity ([7]; 50 ppm added): 2.9
Off-Flavor Intensity ([7]; 50 ppm added): 1.9
Masking Component Intensity ([7]; 100 ppb added): 0.4
Off-Flavor Intensity ([7]; 100 ppb added): 3.0
Masking Component Intensity ([7]; 100 ppm added): 3.5
Off-Flavor Intensity ([7]; 100 ppm added): 1.3
Masking Component Intensity ([7]; 100 ppt added): 0.0
Off-Flavor Intensity ([7]; 100 ppt added): 3.0

From patent US20250176599A1, “FLAVOR COMPOSITION AND FOOD AND BEVERAGE” (TAKASAGO INTERNATIONAL CORPORATION, priority 2021, published 2025)
